Test results: patent EP0258134A1, “Therapeutical compositions containing benzhydryl thiomethane derivatives” (LABORATOIRE L. LAFON, priority 1986, dated 1988)

Assays:
Solubility in water = type: physicochemical; conditions: result in words
Source text: Le composé est une poudre blanche, insoluble dans l'éther de pétrole, soluble dans l'éther, l'acé-tate d'éthyle et les alcools. Sa solubilité dans l'eau est inférieure à 0,1%.

souris [1] = experiment: Pretoxicity, i.p., 3 mice per dose; type: in vivo
Description: (§1) Le composé CRL 41 334, en suspension dans une solution de gomme arabique, a été administré par voie intrapéritonéale sous un volume de 20 ml/kg chez la souris (mâle, NMRI, C.E.R. Janvier) et de 5 ml/kg chez le rat (mâle, CD₁; SPRAGUE DAWLEY, Charles River).
I - PRETOXICITE ( 3 souris par dose)
(§2) Le CRL 41 055, en suspension dans une solution de gomme arabique, a été administré par voie intrapéritonéale sous un volume de 20 ml/kg chez la souris (mâle, NMRI, Evic Ceba).
Prétoxicite (3 souris par dose)
(§3) Le CRL 40 956, en suspension dans une solution de gomme arabique a été administré par voie intrapéritonéale sous un volume de 20 ml/kg chez la souris (mâle, NMRI, Evic Céba) et de 5 ml/kg chez le rat (mâle, CD₁, Sprague Dawley, Charles River).
Prétoxicité ( 3 souris par dose)

souris [2] = experiment: Global behaviour and reactivities, mouse, i.p.; type: in vivo
Description: as §1
(§4) Des lots de 3 animaux sont observés avant, puis 15 mn, 30 mn, 1h, 2h, 3h et 24 heures après l'administration du composé CRL 41 334.
as §2, §3
(§5) Des lots de 3 animaux sont observés avant, puis 15 mn, 30 mn, 1 h, 2 h, 3 h et 24 heures après l'administration de CRL 40 956.

rat [3] = experiment: Global behaviour and reactivities, rat, i.p.; type: in vivo; conditions: rat
Description: as §1, §4, §3, §5

rat [4] = experiment: Interaction with apomorphine, rat; type: in vivo; conditions: 64 et 256 mg/kg, apomorphine 0,5 mg/kg s.c.
Description: Le composé CRL 41 334 est administré à des lots de 6 rats une demi-heure avant l'injection sous-cutanée de 0,5 mg/kg d'apomorphine.
Le CRL 40 956 est administré à des lots de 6 rats une demi-heure avant l'injection sous cutanée de 0,5 mg/kg d'apomorphine.

souris [5] = experiment: Spontaneous motility (actimeter); type: in vivo; conditions: souris, half an hour before the actimeter
Description: Après avoir reçu le composé CRL 41 334, les souris sont placées en actimètre où leur motilité est enregistrée pendant 30 minutes.
Une demi-heure après avoir reçu le CRL 41 055, les souris (6 par dose, 12 témoins) sont placées en actimètre où leur motilité est enregistrée pendant 30 minutes.
Une demi-heure après avoir reçu le CRL 40 956, les souris (6 par dose, 12 témoins) sont placées en actimètre ou leur motilité est enregistrée pendant 30 minutes.

souris [6] = experiment: Intergroup aggressiveness; type: in vivo; conditions: 128 mg/kg
Description: Après avoir séjourné pendant 3 semaines dans chacune des moitiés d'une cage séparées par une cloison opaque, des groupes de 3 souris reçoivent le composé CRL 41 334. Une demi-heure plus tard, les deux groupes d'une même cage sont réunis par retrait de la cloison et on note le nombre de combats qui surviennent en 10 minutes. Le test est pratiqué pour moitié sur les souris habituelles (NMRI, C.E.R. Janvier) et pour moitié sur des souris NMRI (Iffa Credo).
Après avoir séjourné pendant 3 semaines dans chacune des moitiés d'une cage séparée par une cloison opaque, des groupes de 3 souris reçoivent le CRL 40 956. Une demi-heure plus tard, les deux groupes d'une même cage sont réunis par retrait de la cloison et on note le nombre de combats qui surviennent en 10 minutes.

souris [7] = experiment: Asphyxic anoxia (gallamine triethiodide); type: in vivo; conditions: 512 mg/kg, gallamine 32 mg/kg i.p.
Description: Des lots de 20 souris reçoivent le composé CRL 41 334 une demi-heure avant l'administration intrapéritonéale de 32 mg/kg de triiodoéthylate de gallamine.
Des lots de 10 souris reçoivent le CRL 40 956 une demi-heure avant l'administration intrapé-ritonéale de 32 mg/kg de triodoéthylate de Gallamine.

souris [8] = experiment: Interaction with barbital; type: in vivo; conditions: souris, 512 mg/kg, barbital 200 mg/kg i.p.
Description: Une demi-heure après l'administration du composé CRL 41 334, des lots de 20 souris reçoivent une injection intrapéritonéale de barbital ([…]).
Une demi-heure après l'administration du CRL 40 956 des lots de 10 souris reçoivent une injection intrapéritonéale de 200 mg/kg de barbital.

souris [9] = experiment: Behavioural despair (forced immersion); type: in vivo; conditions: souris, 512 mg/kg
Source text: Une demi-heure après avoir reçu le composé CRL 41 334, des lots de 6 souris (mâles, CD₁, Charles River) sont placés dans un bécher rempli d'eau sur une hauteur de 6 cm. On note la durée totale d'immobilité entre la 2ème et la 6ème minutes suivant l'immersion.
Une demi-heure après avoir reçu le CRL 40 956, des lots de 10 souris (mâles CD₁ Charles River) sont plongées dans une enceinte réduite remplie d'eau sur une hauteur de 6 cm. On note la durée totale d'immobilité entre la 2ème et la 6ème minute suivant l'immersion.

souris [10] = experiment: Motility reduced by habituation to the enclosure; type: in vivo; conditions: 32 et 128 mg/kg
Description: Après 18 heures de séjour dans les actimè-tres, les souris (6 par dose, 12 témoins) reçoivent le composé CRL 41 334. Elles sont aussitôt replacées dans leurs enceintes respectives et, une demi-heure plus tard, on enregistre leur motilité pendant 30 minutes.
Après 18 heures de séjour dans les actimètres, les souris (6 par dose, 12 émoins) reçoivent le CRL 41 055. Elles sontaussitôt replacées dans leurs enceintes respectives et, une demi-heure plus tard, on enregistre leur motilité pendant 30 minutes.

homme = experiment: Therapeutic use in humans; type: in vivo; conditions: trois gélules de 50 mg par jour
[11] = system: souris femelles de souche OF₁; experiment: Delayed hypersensitivity reaction to sheep red blood cells; type: in vivo; conditions: for Ind. Activité / % d'augmentation du coussinet (mm) m: voie orale; for % d'augmentation du coussinet (mm) m: trois jours avant immunisation
Source text: Selon la méthode de Miller, Lagrange et Mackaness ("Immunopotentiation with BCG II modulation of the response to sheep red blood cells", Journal of the National Cancer Institute 1973, 51, 5, 1669 - 1676).
Le composé à tester est administré par voie orale a des souris femelles de souche OF₁ trois jours avant immunisation.
Les résultats sont exprimés en pourcentage d'augmentation du coussinet plantaire.

rat [12] = experiment: Search for stereotyped movements, rat; type: in vivo; conditions: in vivo, 2 mg/kg
Source text: Des lots de 6 rats reçoivent une injection du composé CRL 41 334 ou d'amphétamine, puis sont immédiatement placés dans des boîtes de petites dimensions (20 x 10 x 10 cm) où leur comportement stéréotypeé est coté de 0 à 3 jusqu'à extinction de l'effet.

ON=CCSC(c1ccccc1)c1ccccc1 [CRL 40 956, 2-(benzhydrylthio)acétaldoxime]
solubilité dans l'eau (Solubility in water): Insoluble dans l'eau
symptômes (souris [1]; 256 mg/kg i.p.): mêmes symptômes
mortalité (souris [1]; 1024 et 512 mg/kg i.p.): pas de mortalité
symptômes (souris [1]; 1024 et 512 mg/kg i.p.): crampes abdominales, dyspnée
comportement et réactivités (souris [2]; souris, 512 mg/kg i.p.): sédation pendant 2 à 3 heures
comportement et réactivités (souris [2]; souris, 128, 32 et 8 mg/kg i.p.): pas de symptômes nets
comportement et réactivités (rat [3]; 64 mg/kg i.p.): sédation pendant 3 heures avec diminution
comportement et réactivités (rat [3]; 256 mg/kg i.p.): sédation pendant 3 heures
stéréotypies induites par l'apomorphine (rat [4]): diminue très modérément l'intensité des stéréotypies
activité motrice spontanée (souris [5]; 512 mg/kg): diminue fortement l'activité motrice spontanée
nombre de combats (souris [6]): diminue le nombre de combats
apparition des convulsions et de la mort (souris [7]): retarde modérément l'apparition des convulsions et de la mort
durée du sommeil barbiturique (souris [8]): diminue la durée du sommeil barbiturique
durée d'immobilité "de désespoir" (souris [9]): diminue la durée d'immobilité

NC(=O)CSC(c1ccccc1)c1ccccc1 [CRL 41 055, 2-(benzhydrylthio)acétamide]
solubilité dans l'eau (Solubility in water): insoluble dans l'eau
symptômes (souris [1]; 64 mg/kg i.p., after 45 minutes, lasting more than 2 hours): excitation, stéréotypies (reniflements, redressements)
symptômes (souris [1]; 512 mg/kg i.p.): sédation, fréquence respiratoire diminuée, contractions abdominales
convulsions (souris [1]; 512 mg/kg i.p., 18 heures après l'injection): convulsions intermittentes présentes chez toutes les souris
mortalité (souris [1]; 512 mg/kg i.p., après 48 heures): 1/3
symptômes (souris [1]; 1024 mg/kg i.p.): mêmes symptômes
mortalité (souris [1]; 128 et 256 mg/kg i.p.): Pas de mortalité
symptômes (souris [1]; 128 et 256 mg/kg i.p.): pendant 45 minutes sédation, fréquence respiratoire diminuée
comportement et réactivités (souris [2]; souris, 2 mg/kg i.p.): pas de modifications nettes
comportement et réactivités (souris [2]; souris, 128 mg/kg i.p.): sédation pendant 30 minutes faisant place à une excitation tardive
comportement et réactivités (souris [2]; souris, 8 et 32 mg/kg i.p.): excitation pendant 2 heures
motilité spontanée (souris [5]; 32 et 128 mg/kg): augmentation de motilité spontanée
activité motrice chez la souris habituée à son enceinte (souris [10]): reprise nette de l'activité motrice
thérapeutique humaine comme antidépresseur (homme): s'est avéré utile

O=C(CSC(c1ccc(F)cc1)c1ccc(F)cc1)NO [CRL 41 335, acide 2-(4,4ʹ-difluorobenzhydrylthio)acétohydroxamique]
solubilité dans l'eau (Solubility in water): insoluble dans l'eau
Ind. Activité ([11]; Exp 1, 0,1 mg/kg): 1,29
% d'augmentation du coussinet (mm) m ([11]; Exp 1, 0,1 mg/kg): 11,5%
Ind. Activité ([11]; Exp 1, 1 mg/kg): 0,94
% d'augmentation du coussinet (mm) m ([11]; Exp 1, 1 mg/kg): 8,4%
Ind. Activité ([11]; Exp 1, 10 mg/kg): 1,00
% d'augmentation du coussinet (mm) m ([11]; Exp 1, 10 mg/kg): 8,9%
Ind. Activité ([11]; Exp 1, 100 mg/kg): 0,77
% d'augmentation du coussinet (mm) m ([11]; Exp 1, 100 mg/kg): 6,9%
action immunostimulante ([11]; overall statement in the text): dépourvu d'une telle action immostimulante

CC(N)Cc1ccccc1 (stereo not drawn) [amphétamine, reference compound]
durée des stéréotypies (rat [12]): 270 min
